# Source: US5216001A, “Indole derivatives” (H. Lunbeck A/S, priority 1990, dated 1993)
# Key:
# [1] = biological target: α1 adrenoceptors; assay: inhibition of 3H-prazosin binding to α1 adrenoceptors in rat brain in vitro; settings: 3H-prazosin 0.25 nM, rat brain membranes, read-out: Binding IC50, 3H Praz.
# [2] = biological target: T1, serotonin S2 (5-HT2) receptors (Rattus norvegicus, UniProt P14842); assay: inhibition of 3H-ketanserin binding to serotonin S2 (5-HT2) receptors in rat cortex in vitro; settings: 3H-ketanserin 0.5 nM, rat cortex membranes, read-out: Binding IC50, 3H Ket.
# T1 construct: cortical tissue is dissected and weighed; from tissue; host or cells: cerebral cortex membranes of male Wistar (Mol:Wist) rats
# [3] = biological target: T2, dopamine D-2 receptors (Rattus norvegicus, UniProt P61169); assay: inhibition of 3H-spiperone binding to dopamine D-2 receptors in rat corpus striatum in vitro; settings: 3H-spiperone 0.5 nM, rat corpus striatum membranes, in vitro; read-out: Binding IC50, 3H Spi.
# T2 construct: striatal tissue is dissected and weighed; from tissue; host or cells: corpus striatum membranes of male Wistar rats
# Summary of the method: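 Rat striatal membranes from male Wistar rats in 50 mM K-phosphate pH 7.4 incubated 10 min at 37 °C with 0.5 nM ³H-spiperone and five drug concentrations over 3 decades. Bound radioactivity collected by filtration and counted by scintillation; nonspecific binding defined with 10 μM 6,7-ADTN.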
# T1 sequence (P14842 whole entry): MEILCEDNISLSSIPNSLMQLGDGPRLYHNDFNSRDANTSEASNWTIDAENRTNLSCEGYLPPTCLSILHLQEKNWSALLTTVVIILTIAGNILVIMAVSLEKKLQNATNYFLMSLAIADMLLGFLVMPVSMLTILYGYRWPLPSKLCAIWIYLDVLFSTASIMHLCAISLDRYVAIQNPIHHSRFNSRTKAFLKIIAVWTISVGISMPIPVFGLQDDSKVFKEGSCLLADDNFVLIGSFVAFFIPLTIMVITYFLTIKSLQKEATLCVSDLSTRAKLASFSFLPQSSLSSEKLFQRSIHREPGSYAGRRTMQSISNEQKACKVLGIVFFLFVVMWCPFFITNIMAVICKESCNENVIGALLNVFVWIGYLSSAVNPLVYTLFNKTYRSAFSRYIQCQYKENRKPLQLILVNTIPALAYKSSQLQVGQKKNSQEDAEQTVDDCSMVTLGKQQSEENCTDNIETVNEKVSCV
# T2 sequence (P61169 whole entry): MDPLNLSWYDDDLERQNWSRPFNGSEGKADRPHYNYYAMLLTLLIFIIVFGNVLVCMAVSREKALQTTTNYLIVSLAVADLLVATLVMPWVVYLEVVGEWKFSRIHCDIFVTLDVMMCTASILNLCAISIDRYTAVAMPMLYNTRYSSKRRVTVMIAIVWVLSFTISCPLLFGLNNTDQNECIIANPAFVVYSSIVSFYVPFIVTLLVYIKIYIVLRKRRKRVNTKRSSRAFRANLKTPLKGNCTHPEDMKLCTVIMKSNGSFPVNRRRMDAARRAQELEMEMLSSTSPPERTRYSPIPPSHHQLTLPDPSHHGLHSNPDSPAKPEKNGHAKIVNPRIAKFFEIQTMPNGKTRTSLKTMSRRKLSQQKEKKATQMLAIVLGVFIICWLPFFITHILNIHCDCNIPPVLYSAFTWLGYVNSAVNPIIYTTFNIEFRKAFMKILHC
smiles,measurement,setting,value
"CC(C)N1CCN(CCN2CCC(c3cn(-c4ccc(F)cc4)c4cc(Cl)ccc34)CC2)C1=O [Compound 4a, 6-chloro-1-(4-fluorophenyl)-3-[1-[2-[3-(2-propyl)-2-imidazolidinon-1-yl]ethyl]-4-piperidyl]-1H-indole]",IC50,[1],0.07 µM
same,IC50,[2],0.0015 µM
same,IC50,[3],0.13 µM
"Cc1ccc2c(C3CCN(CCN4CCNC4=O)CC3)cn(-c3ccc(F)cc3)c2c1 [Compound 4g, 1-(4-fluorophenyl)-3-[1-[2-(2-imidazolidinon-1-yl)ethyl]-4-piperidyl]-6-methyl-1H-indole]",IC50,[1],0.024 µM
same,IC50,[2],0.0008 µM
same,IC50,[3],0.27 µM
"Cc1ccc2c(C3CCN(CCN4CCN(C(C)C)C4=O)CC3)cn(-c3ccc(F)cc3)c2c1 [Compound 5a, 1-(4-fluorophenyl)-6-methyl-3-[1-[2-[3-(2-propyl)-2-imidazolidinon-1-yl]ethyl]-4-piperidyl]-1H-indole]",IC50,[1],0.085 µM
same,IC50,[2],0.0016 µM
same,IC50,[3],0.19 µM
"OCCN1CCN(c2cn(-c3ccc(F)cc3)c3ccc(C(F)(F)F)cc23)CC1 [Lu 21-152, 1-(4-fluorophenyl)-3-[4-(2-hydroxyethyl)-1-piperazinyl]-5-trifluoromethyl-1H-indole, reference compound]",IC50,[1],0.0076 µM
same,IC50,[2],0.0014 µM
same,IC50,[3],0.0026 µM
